# Test results published in US12226405B2, “Compounds and compositions for inhibiting the activity of HIF2-alpha and their methods of use” (Novartis AG, priority 2020, dated 2025).
# System: HIF2α-regulated expression of the endogenous target gene hEGLN3 in 786-O cells
# Assay: Cellular iScript assay for HIF2α (quantitative RT-PCR of hEGLN3)
# Type: cell-based, human
# Settings: Homo sapiens, 786-0, 48 hours incubation
# Method in brief: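 786-O cells were exposed to eleven 2-fold compound dilutions for 48 h at 37° C. Lysates underwent one-step TaqMan qRT-PCR for hEGLN3 with beta-actin as reference; 2^(−ΔΔCt) versus DMSO, as % of control, was fit with a four-parameter model to give IC50.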
row,SMILES,IC50
1,"FC(F)OC1=CC(C(F)(F)F)=CN2C[C@@]3(CCC(F)(F)c4c3ccnc4Cl)N=C12 [Example 31, (S)-1′-chloro-8-(difluoromethoxy)-8′,8′-difluoro-6-(trifluoromethyl)-7′,8′-dihydro-3H,6′H-spiro[imidazo[1,2-a]pyridine-2,5′-isoquinoline]]",37 nM
2,"FC(F)OC1=CC(C(F)(F)F)=CN2C[C@@]3(CCOc4cc(C(F)(F)F)ccc43)N=C12 [Example 44, (S)-8′-(difluoromethoxy)-6′,7-bis(trifluoromethyl)-3′H-spiro[chroman-4,2′-imidazo[1,2-a]pyridine]]",65 nM
